Earlier results in publication PMC7651685 (Psychopharmacology, 2020).

Legend:
[1] = system: dopamine efflux in the nucleus accumbens; set-up: method as in Rowley et al. [2017]; details: rat nucleus accumbens microdialysis; ref Rowley et al. [2017]; cited from earlier work
DAT = details: ref Markowitz et al. [2006]; read-out: Affinity for DAT, IC50; cited from earlier work
[2] = no reference given; cited from earlier work

Row | SMILES | Time of peak of dopamine efflux [1] [min] | also measured
1 | C[C@H](N)Cc1ccccc1 [d-amphetamine] | 40 | –
3 | CC(C)(N)Cc1ccccc1 [phentermine] | 40 | –
4 | O=C(O)C(c1ccccc1)C1CCCCN1 (stereo not shown) [ritalinic acid] | – | Pharmacological activity [2]: pharmacologically inactive
